# In patent publication US7235679B2, “Crystals of a vitamin D derivative and a method for the preparation thereof” (Chugai Seiyaku Kabushiki Kaisha, priority 1996, dated 2007):
# Key:
# Type in all cases: physicochemical
# [1] = Stability test of ED-71: purity measurement using reverse phase HPLC; conditions: for Purity Measurement Using Reverse Phase HPLC, ED-71 peak / Purity Measurement Using Reverse Phase HPLC, Other peaks / Purity Measurement Using Reverse Phase HPLC, Pre Form peak: 265 nm
# Protocol: (§1) Amorphous and crystalline ED-71 compounds were tested for stability at 10, 25 and […]. To estimate the stability, HPLC quantitative assay and absorbance and purity measurements were utilized. The purity was expressed as peak area ratio in percentage in HPLC (% P.A.R.). The test was carried out by using the following procedures:
# (§2) About 2 mg portions of each of the amorphous and crystalline samples are precisely weighed into transparent 10 ml test tubes each having screw cap, individually.
# (§3) The test tubes are purged with argon using a vacuum desiccator and a glove box. This purging procedure is not applied to the test tubes indicated as “1 M (air)” in the tables below.
# (§4) The test tubes in groups are fixed in thermostatic baths which are respectively controlled at the above temperatures and allowed to stand in the dark. After one (1 W) or two (2 W) weeks or one month (1 M), the test tubes are removed from the baths and subjected to the following assay and measurements:
# HPLC is carried out using 25 μl of the sample solution as prepared in “HPLC quantitative assay” above. • HPLC conditions used: • Column: Inertsil ODS-2 (5×250 mm) • Mobile phase: acetonitrile/water mixture (55/45) • Flow rate: 1 ml/min • Detection: at UV 265 and 220 nm.
# [2] = Stability test of ED-71: absorbance measurement at 265 nm (E 1%); conditions: absorbance at 265 nm
# Protocol: as §1, §2, §3, §4
# 1 ml of the sample solution as prepared in “HPLC quantitative assay” above is diluted with absolute ethanol to give a whole volume of 10 ml and this diluted solution is then measured for the absorbance at 265 nm using a ultraviolet spectrophotometer. The absorbance is converted into E 1% value which is derived from Lambert-Beer Law and the conversion is made according to the following equation: E1%=A/cb wherein A is absorbance, c is concentration in g/100 ml and b is length of optical path in cm across the test solution, which is commonly 1. (4) Purity Measurement
# [3] = Stability test of ED-71: HPLC quantitative assay (survivability)
# Protocol: as §1, §2, §3, §4
# 5 ml of absolute ethanol is precisely added to the test tube to form a sample solution. 1 ml of the sample solution and 1 ml of an internal standard solution are both precisely added to another test tube and the resulting mixture is diluted with methylene chloride to give a whole volume of 20 ml. This diluted solution is designated solution 1. The internal standard solution is formed by dissolving 2-aminopyrimidine in methanol to a concentration of 0.6 mg/ml.
# Next, both of 1 ml of another standard solution for quantitative assay which is formed by dissolving crystalline ED-71 in absolute ethanol to a concentration of 0.4 mg/ml and 1 ml of the internal standard solution are precisely added to another test tube and the resulting mixture is diluted with methylene chloride to give a whole volume of 20 ml. This diluted solution is designated solution 2.
# HPLC is carried out using 20 μl of each of solutions 1 and 2. For each solution, an area ratio of the peak of ED-71 to the peak of the internal standard substance is determined from the HPLC data. The ED-71 content in the sample is determined from the ratio of the area ratio for solution 1 to that for solution 2.
# Survivability (%) is determined by dividing the ED-71 content thus obtained by ED-71 content in the same sample but prior to the above treatment. • HPLC conditions used: • Column: YMC A-004SIL (4.6×300 mm) • Mobile phase: methylene chloride/methanol mixture (95/5) • Flow rate: 1 ml/min • Detection: at UV 265 nm. (3) Absorbance Measurement
smiles,measurement,setting,value
"C=C1/C(=C\C=C2/CCC[C@]3(C)[C@@H]([C@H](C)CCCC(C)(C)O)CC[C@@H]23)C[C@@H](O)[C@@H](OCCCO)[C@@H]1O [Crys., 1α,25-dihydroxy-2β-(3-hydroxypropoxy)vitamin D3]","220 nm (%), ED-71 peak","[1]; 10° C., 1 M (air), dark",97.09%
same,"220 nm (%), Other peaks","[1]; 10° C., 1 M (air), dark",1.82%
same,"220 nm (%), Pre Form peak","[1]; 10° C., 1 M (air), dark",1.09%
same,"220 nm (%), ED-71 peak","[1]; 10° C., 1 M, argon, dark",97.44%
same,"220 nm (%), Other peaks","[1]; 10° C., 1 M, argon, dark",1.51%
same,"220 nm (%), Pre Form peak","[1]; 10° C., 1 M, argon, dark",1.05%
same,"220 nm (%), ED-71 peak","[1]; 10° C., 2 W, argon, dark",97.91%
same,"220 nm (%), Other peaks","[1]; 10° C., 2 W, argon, dark",1.09%
same,"220 nm (%), Pre Form peak","[1]; 10° C., 2 W, argon, dark",1.01%
same,"220 nm (%), ED-71 peak","[1]; 10° C., time 0",97.44%
same,"220 nm (%), Other peaks","[1]; 10° C., time 0",2.04%
same,"220 nm (%), Pre Form peak","[1]; 10° C., time 0",0.52%
same,"220 nm (%), ED-71 peak","[1]; 25° C., 1 W, argon, dark",98.17%
same,"220 nm (%), Other peaks","[1]; 25° C., 1 W, argon, dark",1.40%
same,"220 nm (%), Pre Form peak","[1]; 25° C., 1 W, argon, dark",0.44%
same,"220 nm (%), ED-71 peak","[1]; 25° C., 2 W, argon, dark",97.56%
same,"220 nm (%), Other peaks","[1]; 25° C., 2 W, argon, dark",1.43%
same,"220 nm (%), Pre Form peak","[1]; 25° C., 2 W, argon, dark",1.01%
same,"220 nm (%), ED-71 peak","[1]; 25° C., time 0",97.44%
same,"220 nm (%), Other peaks","[1]; 25° C., time 0",2.04%
same,"220 nm (%), Pre Form peak","[1]; 25° C., time 0",0.52%
same,"220 nm (%), ED-71 peak","[1]; 40° C., 1 W, argon, dark",98.18%
same,"220 nm (%), Other peaks","[1]; 40° C., 1 W, argon, dark",1.35%
same,"220 nm (%), Pre Form peak","[1]; 40° C., 1 W, argon, dark",0.47%
same,"220 nm (%), ED-71 peak","[1]; 40° C., 2 W, argon, dark",97.65%
same,"220 nm (%), Other peaks","[1]; 40° C., 2 W, argon, dark",1.33%
same,"220 nm (%), Pre Form peak","[1]; 40° C., 2 W, argon, dark",1.02%
same,"220 nm (%), ED-71 peak","[1]; 40° C., time 0",97.44%
same,"220 nm (%), Other peaks","[1]; 40° C., time 0",2.04%
same,"220 nm (%), Pre Form peak","[1]; 40° C., time 0",0.52%
same,"Purity Measurement Using Reverse Phase HPLC, ED-71 peak","[1]; 10° C., 1 M (air), dark",98.72 % P.A.R
same,"Purity Measurement Using Reverse Phase HPLC, Other peaks","[1]; 10° C., 1 M (air), dark",0.42 % P.A.R
same,"Purity Measurement Using Reverse Phase HPLC, Pre Form peak","[1]; 10° C., 1 M (air), dark",0.86 % P.A.R
same,"Purity Measurement Using Reverse Phase HPLC, ED-71 peak","[1]; 10° C., 1 M, argon, dark",98.77 % P.A.R
same,"Purity Measurement Using Reverse Phase HPLC, Other peaks","[1]; 10° C., 1 M, argon, dark",0.37 % P.A.R
same,"Purity Measurement Using Reverse Phase HPLC, Pre Form peak","[1]; 10° C., 1 M, argon, dark",0.86 % P.A.R
same,"Purity Measurement Using Reverse Phase HPLC, ED-71 peak","[1]; 10° C., 2 W, argon, dark",98.84 % P.A.R
same,"Purity Measurement Using Reverse Phase HPLC, Other peaks","[1]; 10° C., 2 W, argon, dark",0.32 % P.A.R
same,"Purity Measurement Using Reverse Phase HPLC, Pre Form peak","[1]; 10° C., 2 W, argon, dark",0.83 % P.A.R
same,"Purity Measurement Using Reverse Phase HPLC, ED-71 peak","[1]; 10° C., time 0",99.04 % P.A.R
same,"Purity Measurement Using Reverse Phase HPLC, Other peaks","[1]; 10° C., time 0",0.60 % P.A.R
same,"Purity Measurement Using Reverse Phase HPLC, Pre Form peak","[1]; 10° C., time 0",0.36 % P.A.R
same,"Purity Measurement Using Reverse Phase HPLC, ED-71 peak","[1]; 25° C., 1 W, argon, dark",99.35 % P.A.R
same,"Purity Measurement Using Reverse Phase HPLC, Other peaks","[1]; 25° C., 1 W, argon, dark",0.38 % P.A.R
same,"Purity Measurement Using Reverse Phase HPLC, Pre Form peak","[1]; 25° C., 1 W, argon, dark",0.28 % P.A.R
same,"Purity Measurement Using Reverse Phase HPLC, ED-71 peak","[1]; 25° C., 2 W, argon, dark",98.78 % P.A.R
same,"Purity Measurement Using Reverse Phase HPLC, Other peaks","[1]; 25° C., 2 W, argon, dark",0.37 % P.A.R
same,"Purity Measurement Using Reverse Phase HPLC, Pre Form peak","[1]; 25° C., 2 W, argon, dark",0.85 % P.A.R
same,"Purity Measurement Using Reverse Phase HPLC, ED-71 peak","[1]; 25° C., time 0",99.04 % P.A.R
same,"Purity Measurement Using Reverse Phase HPLC, Other peaks","[1]; 25° C., time 0",0.60 % P.A.R
same,"Purity Measurement Using Reverse Phase HPLC, Pre Form peak","[1]; 25° C., time 0",0.36 % P.A.R
same,"Purity Measurement Using Reverse Phase HPLC, ED-71 peak","[1]; 40° C., 1 W, argon, dark",99.40 % P.A.R
same,"Purity Measurement Using Reverse Phase HPLC, Other peaks","[1]; 40° C., 1 W, argon, dark",0.31 % P.A.R
same,"Purity Measurement Using Reverse Phase HPLC, Pre Form peak","[1]; 40° C., 1 W, argon, dark",0.29 % P.A.R
same,"Purity Measurement Using Reverse Phase HPLC, ED-71 peak","[1]; 40° C., 2 W, argon, dark",98.75 % P.A.R
same,"Purity Measurement Using Reverse Phase HPLC, Other peaks","[1]; 40° C., 2 W, argon, dark",0.40 % P.A.R
same,"Purity Measurement Using Reverse Phase HPLC, Pre Form peak","[1]; 40° C., 2 W, argon, dark",0.85 % P.A.R
same,"Purity Measurement Using Reverse Phase HPLC, ED-71 peak","[1]; 40° C., time 0",99.04 % P.A.R
same,"Purity Measurement Using Reverse Phase HPLC, Other peaks","[1]; 40° C., time 0",0.60 % P.A.R
same,"Purity Measurement Using Reverse Phase HPLC, Pre Form peak","[1]; 40° C., time 0",0.36 % P.A.R
same,E 1%,"[2]; 10° C., 1 M (air), dark",341.7
same,E 1%,"[2]; 10° C., 1 M, argon, dark",342.7
same,E 1%,"[2]; 10° C., 2 W, argon, dark",343.8
same,E 1%,"[2]; 10° C., time 0",359.2
same,E 1%,"[2]; 25° C., 1 W, argon, dark",349.5
same,E 1%,"[2]; 25° C., 2 W, argon, dark",341.6
same,E 1%,"[2]; 25° C., time 0",359.2
same,E 1%,"[2]; 40° C., 1 W, argon, dark",349.8
same,E 1%,"[2]; 40° C., 2 W, argon, dark",348.7
same,E 1%,"[2]; 40° C., time 0",359.2
same,HPLC Quantitative Assay (% Survivability),"[3]; 10° C., 1 M (air), dark",95.0%
same,HPLC Quantitative Assay (% Survivability),"[3]; 10° C., 1 M, argon, dark",97.0%
same,HPLC Quantitative Assay (% Survivability),"[3]; 10° C., 2 W, argon, dark",96.8%
same,HPLC Quantitative Assay (% Survivability),"[3]; 10° C., time 0",100%
same,HPLC Quantitative Assay (% Survivability),"[3]; 25° C., 1 W, argon, dark",99.4%
same,HPLC Quantitative Assay (% Survivability),"[3]; 25° C., 2 W, argon, dark",98.8%
same,HPLC Quantitative Assay (% Survivability),"[3]; 25° C., time 0",100%
same,HPLC Quantitative Assay (% Survivability),"[3]; 40° C., 1 W, argon, dark",99.5%
same,HPLC Quantitative Assay (% Survivability),"[3]; 40° C., 2 W, argon, dark",102.9%
same,HPLC Quantitative Assay (% Survivability),"[3]; 40° C., time 0",100%
